One series in a line: PK rat. The conditions noted are these: for CLu rat: unbound clearance; for clearance: read-out: CLp rat (converted); for Vd: read-out: Vss rat. In kind it is in vivo. The gist of the method: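 Male Sprague–Dawley rats, 6–8 weeks, dosed 0.1 mg/kg iv bolus (PEG200/water 60/40) or 5 mg/kg oral gavage (0.5% MC suspension, fasted ≥12 h until 3 h post-dose); n = 3 per route. Plasma sampled up to 24 h, assayed by LC-MS/MS; noncompartmental PK parameters.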

A short description of a further series: PK dog. In kind it is in vivo. The note with it: for CLu dog: unbound clearance; for clearance: read-out: CLp dog (converted); for Vd: read-out: Vss dog. On the procedure:
These studies were performed with non-naïve male Beagle dogs (age 13.8 months old, origin: Marshall US, North Rose, NY 14516, USA; age 15.8 months old, origin: Harlan; age 17.7 months old, origin: Harlan). Dogs (n = 3) were dosed iv via a 10 min infusion via a catheter with a dose level of 1 mg/kg. After a washout of 3 days, they were dosed orally as a single gavage with a dose level of 5 or 1 mg/kg in PEG400/MC 0.5% or MC 0.5%. Before administration by the po route, animals were fasted for a period of at least 12 h before treatment, and food was given just after the 3 h of blood sampling. All animals had free access to tap water. Blood samples were taken without an anesthetic from a jugular or cephalic vein into tubes containing lithium heparin as an anticoagulant. Blood samples were taken up to 24 h after the start of the infusion. After centrifugation, the resulting plasma samples were assayed by LC-MS/MS with a nongood laboratory practice (non-GLP)-validated method. PK parameters were calculated by noncompartmental analysis using WinNonlin software (Certara, Princeton, NJ, USA).

The nature of series [1]: MDCK-MDR1 permeability assay. In kind it is in vitro ADME, canine. The conditions noted are these: dog, MDCK-MDR1, pH 7.4; A to B, n = 2; read-out: MDCK-MDR1 PA2B. On the procedure: (§1) MDCKII-MDR1 cells were seeded on Millicell-24 cell culture insert plate assemblies at a final concentration of 0.12 × 10^6 cells/well. Cells were cultured in a CO2 incubator for 3–4 days prior to experiment start with media replacement 24 h post seeding. On the day of the experiment, cells were preincubated for 45 min with Dulbecco’s Phosphate Buffer saline (D-PBS, pH7.4), containing 1% of DMSO. Compounds were prepared in D-PBS, pH 7.4 and added to either the apical or basolateral chambers of the Millicell cell culture insert plates assembly at a final concentration of 10 μM with a final DMSO concentration of 1%. Lucifer Yellow was added to all donor buffer solutions in order to assess integrity of the cell monolayers by monitoring Lucifer Yellow permeation. […] After brief mixing and centrifugation, the supernatant was analyzed by LC-MS/MS. The apparent permeability coefficient (Papp) was calculated according to the following equation: Papp = (dQ/dT)(1/C0)(1/A), where dQ/dT = permeability rate; C0 = initial concentration in donor compartment; A = surface area of the cell monolayer (0.7 cm^2). […] The efflux ratio is calculated as Papp from B to A divided by Papp from A to B. Passive permeability (×10^–6 cm/s) is calculated by the formula: Papp from A to B × efflux ratio + 1/2.

Another series concerns MDCKII-MDR1 cells. The series is described as follows: MDCK-MDR1 permeability assay. The note with it: A to B, n = 2. It counts as in vitro ADME, canine. On the procedure:
as §1

The nature of another series: PK mouse. In kind it is in vivo.
A further series has as its target hERG (Homo sapiens, UniProt Q12809). The series is described as follows: hERG manual patch clamp test. In kind it is cell-based.
Series [2] in a line: Liver microsomal stability, monkey. The note with it: matrix not given, read-out: Clintr,unbound monkey (converted). It counts as in vitro ADME. On the procedure:
The microsomal stability assay was performed by incubation of test compound at 1 μM, 0.2% DMSO in phosphate buffer with microsomes (0.5 mg/mL) from mouse, rat, dog, or human (Xeno-Tech, Kansas City, KS, USA), and cofactors with final concentrations of 0.6 U/mL glucose-6- phosphate dehydrogenase, 3.3 mM MgCl2, 3.3 mM glucose-6-phosphate, and 1.3 mM nicotinamide adenine dinucleotide phosphate (NADP)+. Before addition of the microsomes (time zero) and after 30 min of incubation at 37 °C with shaking, the reaction was stopped, and proteins were precipitated with an excess of acetonitrile containing an internal standard. The samples were mixed, centrifuged, and filtered, and the supernatant was analyzed by liquid chromatography–mass spectrometry/mass spectrometry (LC–MS/MS). […] In vitro unbound intrinsic clearance (CLint,u) was calculated from the half-life using the following equations: [drawing 1] […]
Equilibrium dialysis is a technique used to measure microsomal binding. […] Each compound was analyzed in duplicate for 4 h at 37 °C. At the end of incubation, both chambers were sampled and analyzed by LC-MS/MS. The unbound microsomal fraction (fu, mic) was calculated as the concentration in buffer divided by the total concentration in the microsomal side. […]

The target of the next series is (h)Sigma. The series can be described thus: Radioligand binding, (h)Sigma (Eurofins panel). Also on record: species or system human. The note with it: read-out: IC50, inhibition of radioligand binding to (h)Sigma.
Setting [3] is: male, Sprague-Dawley, plasma, 0.1 mg/kg, iv.
Setting [4] is: male, Sprague-Dawley, plasma, 0.1 mg/kg, iv, read-out: t1/2 iv rat (converted).
Where [5] appears, read: male, Sprague-Dawley, plasma, iv, 0.1 mg/kg, iv.
Where [6] appears, read: male, beagle, plasma, 1 mg/kg, iv.

The values below come from paper PMC11017246, “Discovery of GLPG2737, a Potent Type 2 Corrector of CFTR for the Treatment of Cystic Fibrosis in Combination with a Potentiator and a Type 1 Co-corrector” (Journal of Medicinal Chemistry, 2024).

Chain of hERG (Q12809 whole entry): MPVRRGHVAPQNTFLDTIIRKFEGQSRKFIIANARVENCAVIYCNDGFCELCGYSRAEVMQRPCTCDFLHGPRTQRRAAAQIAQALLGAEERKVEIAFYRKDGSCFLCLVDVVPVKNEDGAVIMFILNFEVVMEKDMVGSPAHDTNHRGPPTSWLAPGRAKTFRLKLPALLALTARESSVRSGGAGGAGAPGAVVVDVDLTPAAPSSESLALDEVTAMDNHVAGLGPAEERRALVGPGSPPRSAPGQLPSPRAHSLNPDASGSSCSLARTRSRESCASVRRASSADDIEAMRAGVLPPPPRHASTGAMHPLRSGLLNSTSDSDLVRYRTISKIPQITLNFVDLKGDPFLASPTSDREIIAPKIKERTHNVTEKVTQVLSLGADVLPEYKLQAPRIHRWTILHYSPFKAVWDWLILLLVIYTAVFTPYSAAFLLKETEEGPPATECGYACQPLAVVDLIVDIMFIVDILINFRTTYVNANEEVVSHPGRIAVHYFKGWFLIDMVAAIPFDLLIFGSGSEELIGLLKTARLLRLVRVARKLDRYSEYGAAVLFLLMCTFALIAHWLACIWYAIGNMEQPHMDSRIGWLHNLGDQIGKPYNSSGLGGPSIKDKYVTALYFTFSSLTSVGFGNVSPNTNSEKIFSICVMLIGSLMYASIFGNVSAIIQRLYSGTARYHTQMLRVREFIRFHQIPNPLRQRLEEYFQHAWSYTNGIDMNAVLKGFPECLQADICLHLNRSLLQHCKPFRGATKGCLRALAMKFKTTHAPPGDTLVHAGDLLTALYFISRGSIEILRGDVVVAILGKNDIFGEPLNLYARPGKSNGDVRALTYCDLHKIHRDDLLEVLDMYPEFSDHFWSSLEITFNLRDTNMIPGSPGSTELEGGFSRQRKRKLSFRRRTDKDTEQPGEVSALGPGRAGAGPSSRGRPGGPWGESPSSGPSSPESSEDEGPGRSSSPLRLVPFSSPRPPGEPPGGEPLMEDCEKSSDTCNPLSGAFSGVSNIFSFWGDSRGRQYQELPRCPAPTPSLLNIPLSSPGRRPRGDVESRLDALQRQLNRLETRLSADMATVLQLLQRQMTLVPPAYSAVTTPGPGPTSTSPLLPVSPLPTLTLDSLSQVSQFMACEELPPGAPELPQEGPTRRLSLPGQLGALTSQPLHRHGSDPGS

For the molecule `CN(C)S(=O)(=O)NC(=O)c1cc(N2CCC(N3CCOCC3)CC2)c2c(C3CCC3)nn(-c3ccc(F)cc3)c2n1` [Compound 51], the CLu rat in the series “PK rat” (iv) is 220 mL/min/kg. Moreover, the results for the clearance in “PK rat” (setting [3]) and in “PK dog” (setting [6]) were 3.17 mL/min/kg and 2.67 mL/min/kg, respectively. For the same molecule, the half-life at 24 h is 3.6 h in the series “PK rat” (setting [4]) and 4.9 h in “PK dog” (male, beagle, plasma, 0.1 mg/kg, iv, read-out: t1/2 iv dog (converted)). Besides, the results for the Vd in “PK rat” (setting [5]) and in the series “PK dog” (setting [6]) were 0.81 L/kg and 0.9 L/kg, respectively. Moreover, in the series “PK dog” (iv), the CLu dog turned out to be 202 mL/min/kg.
As for `COC1CCN(C2CCN(c3cc(C(=O)NS(=O)(=O)N(C)C)nc4c3c(C3CCC3)nn4-c3ccc(F)cc3)CC2)CC1` [Compound 52, 3-Cyclobutyl-N-(N,N-dimethylsulfamoyl)-1-(4-fluorophenyl)-4-(4-methoxy-[1,4′-bipiperidin]-1′-yl)-1H-pyrazolo[3,4-b]pyridine-6-carboxamide], the Papp A→B at 1 h, 10 μM in series [1] came out at 5.45 ×10⁻⁶ cm/s. In the series with MDCKII-MDR1 cells, the “MDCK-MDR1 PA2B” value is 5.45 cm × 10^–6 s^–1. Besides, in the series “PK rat” (30 mg/kg po), the “F (%) rat” value stood at 69.1%. The exposure versus dose result in the series “PK rat” (dose of 5 to 300 mg/kg) is on record as “dose proportional increase in exposure”. The CLu rat in “PK rat” (iv) was determined as 333 mL/min/kg. For the same molecule, the clearance in “PK rat” (setting [3]) is 5.33 mL/min/kg; in “PK mouse” (plasma, iv, 1 mg/kg, 1 mg/kg iv, read-out: Clp mouse (converted)), 4.67 mL/min/kg; in the series “PK dog” (setting [6]) it was 3.5 mL/min/kg. For the same molecule, the half-life in “PK rat” (setting [4]) is 3.45 h; in “PK mouse” (plasma, 1 mg/kg iv, read-out: t1/2 iv mouse (converted)), 3.22 h; in “PK dog” (male, beagle, plasma, 1 mg/kg, iv, read-out: t1/2 iv dog (converted)) it was 5.4 h. For the same molecule, the Vd in the series “PK rat” (setting [5]) amounted to 1.38 L/kg; in “PK mouse” (plasma, 1 mg/kg iv, read-out: Vss mouse) it was 1.27 L/kg; in the series “PK dog” (setting [6]), 1.37 L/kg. Also, the “F (%) mouse” value in “PK mouse” (5 mg/kg po) is recorded as 71.3%. Besides, the Unbound clearance in “PK mouse” (plasma, iv, 1 mg/kg, 1 mg/kg iv, unbound clearance, read-out: Cl.u mouse (converted)) was 1110 mL/min/kg. In addition, the hERG inhibition result on hERG was “No significant inhibition”. The “F (%) dog” value in “PK dog” (5 mg/kg po) stood at 59.5%. Also, the CLu dog in the series “PK dog” (iv) came out at 178 mL/min/kg. Besides, the CLint scaled at 1 μM in series [2] is 347 mL/min/kg. Further, at (h)Sigma, the IC50 amounted to 360 nM.
